For orientation: melting point means the temperature, or range, at which the solid turns liquid.

Consider 3 compounds from PMC11414412, “Design and synthesis new indole-based aromatase/iNOS inhibitors with apoptotic antiproliferative activity” (Frontiers in Chemistry, 2024).

The test system of data set [1] is Caspase-8. Kind of data set: Caspase-8 activation assay. The class given is cell-based, human. The settings on record: A-594 cells; for Caspase-8 Fold change: at IC50 concentration, vs untreated control; for Caspase-8 Conc: compound at its IC50 concentration. As for the experimental part: When cells get specific signal instructions, they undergo apoptosis, which results in several significant changes. Caspases, considered the main workers in apoptosis, are activated early in the process, cleaving critical cellular components such as nuclear proteins like DNA repair enzymes or structural proteins found in the cytoskeleton that are required for optimal cellular function.
4.2.6. Caspase-8 activation assay […]
caspase8, and lysed with Cell Extraction Buffer. This lysate was diluted in Standard Diluent Buffer over the range of the assay and measured for human active caspase-8 content. (Cells are Plated in a density of 1.2 – 1.8 × 10,000 cells/well in a volume of 100µl complete growth medium + 100 ul of the tested compound per well in a 96-well plate for 24 hours before the enzyme assay for Tubulin.). The absorbance of each microwell was read on a spectro-photometer at 450 nm. A standard curve is prepared from 7human Caspase-8 standard dilutions and human Caspase-8 concentration determined. […]

Data set [2] concerns Bax. Nature of the data set: Bax activation assay. The class given is cell-based, human. The settings on record: lung (A-549) cancer cells; for Bax Fold change: at IC50, vs untreated control; for Bax Conc: compound at IC50. As for the experimental part:
Cells were obtained from American Type Culture Collection, cells were grown in RPMI 1640 containing 10% fetal bovine serum at 37°C, stimulated with the compounds to be tested for caspase8, and lysed with Cell Extraction Buffer. This lysate was diluted in Standard Diluent Buffer over the range of the assay and measured for human active caspase-8 content. […]
4.2.7. Bax activation assay
Bring all reagents, except the human Bax-α Standard, to room temperature for at least 30 minutes prior to opening. The human Bax-α Standard solution should not be left at room temperature for more than 10 minutes. All standards, controls and samples should be run in duplicate. Refer to the Assay Layout Sheet to determine the number of wells to be used and put any remaining wells with the desiccant back into the pouch and seal the ziploc. Store unused wells at 4 °C. Pipet 100 μL of Assay Buffer into the S0 (0 pg/mL standard) wells. Pipet 100 μL of Standards #1 through #6 into the appropriate wells. Pipet 100 μL of the Samples into the appropriate wells. Tap the plate gently to mix the contents. Seal the plate and incubate at room temperature on a plate shaker for 1 hour at ~500 rpm. Empty the contents of the wells and wash by adding 400 μL of wash solution to every well. Repeat the wash 4 more times for a total of 5 washes. After the final wash, empty or aspirate the wells and firmly tap the plate on a lint free paper towel to remove any remaining wash buffer.
Pipet 100 μL of yellow Antibody into each well, except the Blank. Seal the plate and incubate at room temperature on a plate shaker for 1 hour at ~500 rpm. Empty the contents of the wells and wash by adding 400 μL of wash solution to every well. Repeat the wash 4 more times for a total of 5 washes. After the final wash, empty or aspirate the wells and firmly tap the plate on a lint free paper towel to remove any remaining wash buffer. Add 100 μL of blue Conjugate to each well, except the Blank. Seal the plate and incubate at room temperature on a plate shaker for 30 minutes […]
Pipet 100 μL of Substrate Solution into each well. Incubate for 30 minutes at room temperature on a plate shaker at ~500 rpm. Pipet 100 μL Stop Solution to each well. Blank the plate reader against the Blank wells, read the optical density at 450 nm. Calculate the average net Optical Density (OD) bound for each standard and sample by subtracting the average Blank OD from the average OD for each standard and sample. Using linear graph paper, plot the Average Net OD for each standard versus Bax concentration in each standard. Approximate a straight line through the points.
The concentration of Bax in the unknowns can be determined by interpolation. […]

In the case of `CCc1c2cc(Cl)ccc2n2c(C)c(C(=O)OCc3ccccc3)[nH]c(=O)c12` [Compound 5, benzyl 8-chloro-10-ethyl-4-methyl-1-oxo-1,2-dihydropyrazino [1,2-a]indole-3-carboxylate], the melting point is 180 to 182 °C.
In the case of `CCc1c2cc(Cl)ccc2n2cc(Cc3ccccc3)n(C)c(=O)c12` [Compound 12, 3-Benzyl-8-chloro-10-ethyl-2-methylpyrazino[1,2-a]indol-1(2H)-one], in data set [1], the “Caspase-8 Fold change” value was 29 and the “Caspase-8 Conc” value turned out to be 2.60 ± 0.20 ng/mL. Also, in data set [2], the “Bax Fold change” value turned out to be 41 and the “Bax Conc” value came out at 368 ± 3 pg/mL.
On the same counts, the results for `CCc1c2cc(Cl)ccc2n2cc(-c3ccccc3)[nH]c(=O)c12` [Compound 16, 8-Chloro-10-ethyl-3-phenylpyrazino [1,2-a]indol-1(2H)-one] are 25, 2.25 ± 0.18 ng/mL, 35 and 315 ± 3 pg/mL.
